Measurements: ChEMBL document CHEMBL1133426, “2-Substituted paullones: CDK1/cyclin B-inhibiting property and in vitro antiproliferative activity” (Bioorg Med Chem Lett, 2000)

Tests used:
cells = type: functional; details: Homo sapiens
Description: Inhibition of proliferation in NCI panel of 60 human tumor cell lines

HCT-116 = assay: cells; type: functional; details: Homo sapiens
Description: Inhibition of HCT116 colon cancer cell proliferation

SMILES | GI50 (cells) [µM] | GI50 (HCT-116) [µM]
O=C1Cc2c([nH]c3ccc(Br)cc23)-c2ccccc2N1 [KENPAULLONE] | 39.8 | 
O=C1Cc2c([nH]c3ccc(C(F)(F)F)cc23)-c2cc(C#CCO)ccc2N1 | 12.6 | 3.16
O=C1Cc2c([nH]c3ccc(C(F)(F)F)cc23)-c2cc(C#CC3(O)CCCCC3)ccc2N1 | 2 | 2.51
